Assays:
[1] = system: LYXFDLBC4009 (patient-derived xenograft lymphoma); assay: Cell cytotoxicity CellTiter-Glo, LYXFDLBC4009; assay type: cell-based
Description: (§1) Cells were seeded in 96-well microplates and treated with compounds or cisplatin (as a positive control) at 9 increasing concentrations in technical triplicate. […] On day 1, 90 μL of various cell suspensions with the number of cells ranging from 5000-8000 cells/well were seeded into wells of a 96-well plate (Corning). The number of cells to be seeded was previously determined. • 2. All 96-wells plates with cells were placed in an incubator overnight at 37° C. with 5% CO2. • 3. On day 2, cells were observed under a microscope ensuring the cells treated with vehicle control were in good condition. • 4. A dilution series of the test compounds and cisplatin were prepared at 10× the final concentrations required. 10 μL/well of 10× compound solution was added to the corresponding plates. The final volume was 100 μL/well for all the plates. Final DMSO concentration was 0.1%. • 5. On day 5 (after 72 hours of incubation), 50 μL of CTG reagent was added to each well. • 6. Contents were mixed for 5 minutes on an orbital shaker to facilitate cell lysis. • 7. The plate was allowed to incubate at room temperature for 10 minutes to stabilize luminescent signals.
(§2) The effects of Comparator Compound 1 and certain Example compounds on the viability of various cell lines (LYXFDLBC2835, LYXFDLBC4009 and LYXFDLBC411 (patient-derived xenograft lymphoma), HT1080 (human fibrosarcoma), CA46 (human B cell lymphoma), RKO (human colon carcinoma), NCI-H1703 (human lung squamous cell carcinoma), MX-1 (human breast carcinoma), DU4475 (human breast carcinoma), LU2511 (human lung large cell undifferentiated carcinoma), LU0884 (human lung squamous cell carcinoma)), Panc-1 (human pancreatic carcinoma), MCF-7 (human breast cancer), SW480 (human colon adenocarcinoma) and HCC1806 (human breast ductal carcinoma) were performed using the standard CellTiter-Glo assay (CTG, Promega) as described in Biological Example 2. Compounds which show efficacy in these assays are expected to be useful as agents for treating or preventing hyperproliferative disorders such as cancer.

Caco-2 cells = assay: Caco-2 cell permeability assay; assay type: in vitro ADME; details: apical to basal Papp, 2 μM, pH 7.4, 2.5 h
Outline: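 Caco-2 monolayers grown 10 days were dosed at 2 μM (1% DMSO) on the donor side in HBSS/10 mM HEPES pH 7.4, for both AB and BA directions, then incubated 2.5 h at 37 °C without shaking. Donor and acceptor samples were quantified by LC-MS/MS to give Papp. Wells that failed a Lucifer Yellow integrity check (>1% passage) were excluded.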

[2] = system: LU0884 (human lung squamous cell carcinoma); assay: Cell cytotoxicity CellTiter-Glo, LU0884; assay type: cell-based
Description: as §1, with “signals. […]” for “signals.”

[3] = system: LYXFDLBC4113 (patient-derived xenograft lymphoma); assay: Cell cytotoxicity CellTiter-Glo, LYXFDLBC4113; assay type: cell-based
Description: as §1, §2

[4] = system: LYXFDLBC2835 (patient-derived xenograft lymphoma); assay: Cell cytotoxicity CellTiter-Glo, LYXFDLBC2835; assay type: cell-based
Description: as §1, §2

[5] = system: SU-DHL-10 cell line (human B cell lymphoma); assay: Cell cytotoxicity in SU-DHL-10 cell line (CellTiter-Glo); assay type: cell-based; details: Homo sapiens, SU-DHL10, 72 h, 72 h treatment, CTG
Outline: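 Cells seeded at 5000-8000/well, dosed next day with 9 concentrations in triplicate (DMSO 0.1% final) and incubated 72 h at 37° C, 5% CO2. Viability by CellTiter-Glo luminescence normalised to vehicle (100%) and medium blank; IC50 from sigmoidal nonlinear regression.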

[6] = system: LU2511 (human lung large cell undifferentiated carcinoma); assay: Cell cytotoxicity CellTiter-Glo, LU2511; assay type: cell-based
Description: as §1, with “signals. […]” for “signals.”

SMILES | IC50 [1] [nM] | Caco-2 A-B (Caco-2 cells) [×10⁻⁶ cm/s] | IC50 [2] [nM] | IC50 [3] [nM] | IC50 [4] [nM] | IC50 [5] [nM] | IC50 [6] [nM]
CNCc1cnc2ccc(-c3ccc(F)c(F)c3OCCc3c(C(O)C(C)(C)C)nn(C)c3C)cn12 (single isomer, unassigned) [Example 12, 1-(4-(2-(2,3-difluoro-6-(3-((methylamino)methyl)imidazo[1,2-a]pyridin-6-yl)phenoxy)ethyl)-1,5-dimethyl-1H-pyrazol-3-yl)-2,2-dimethylpropan-1-ol] | 3 | 0.95 | 3 | 3 | 10 | 0.6 | 0.07
Cc1c(CCOc2cc(Cl)ccc2-c2ccc3ncc(CCN)n3c2)c(C(=O)N(C)C)nn1C [Comparator Compound 1, 4-(2-{2-[3-(2-aminoethyl)imidazo[1,2-a]pyridin-6-yl]-5-chlorophenoxy}ethyl)-N,N,1,5-tetramethyl-1H-pyrazole-3-carboxamide, reference compound] | 1540 | 0.0 | 44 | 890 | 130 | 5 | 9

From US12599676B2, “Cytotoxic imidazo[1,2-A]pyridine compounds and their use in therapy” (MyricX Pharma Limited, priority 2022, dated 2026)
